Results from patent publication US20240058460A1, “METHODS AND COMPOUNDS FOR MODULATING HUNTINGTON'S DISEASE” (Design Therapeutics, Inc., priority 2022, published 2024).

How the values were obtained:
[1] = system: human HTT C allele (SNP rs362331C/T) mRNA in GM09197 fibroblasts; experiment: HTT mRNA, allele-specific RT-PCR in GM09197 fibroblasts, C allele; format: cell-based; settings: for GM 09197 E min 48 Hr C Allele (%): lowest % HTT observed at 0.5 nM to 1000 nM compound; for IC50: Homo sapiens, Fibroblast, 48 hr, C allele HTT mRNA normalized to GAPDH, relative to vehicle
Procedure: (§1) Molecular Biology Toolkit: • qPCR primer probe sets: • RNA input normalization was assessed utilizing human glyceraldehyde 3-phosphate dehydrogenase (hGAPDH) TaqMan assay (ThermoFisher cat #4351370) or Human Cyclophillin ([…]) TaqMan assay (ThermoFisher cat #4351372) • Total HTT detection was assessed utilizing human Htt TaqMan assay (ThermoFisher cat #4331182) • Allele-specific detection of human HTT expression in HD cells containing the SNP rs362331C/T (Exon 50): for each assay, allele-specific probes to detect the SNP variant contained locked nucleic acid bases to improve allele discrimination, as compared to unmodified DNA probes. • 362331-F (331 forward primer) • 362331-R (331 reverse primer) • 362331-C probe: TCC CTC ATC+C+AC TGT GT • 362331-T probe: CTC+A+T+C+T+A+C TGT GT • qPCR was performed using Agpath ID one-step reverse transcriptase polymerase chain reaction (RT-PCR) reagent
(§2) Screening of HD molecules methods: GM09197 and/or GM04022 fibroblasts were cultured in T175 flasks incubated at 37° C. and 5% CO2. Once confluency was reached, the media was removed, the cells were washed with 1×PBS, and cells were dissociated using TrypLE™ Express Enzyme. Media was added to the enzyme and collected into a 15-mL conical tube and centrifuged at 500×g for 5 minutes to pellet the cells. Media and enzyme were aspirated using a serological pipette. Cells were resuspended in fresh media and counted using a Countess 3 Automated Cell Counter. Cells were plated at a density of 15,000 cells/well in a tissue culture-treated polystyrene 96-well dish and incubated at 37° C. and 5% CO2 overnight. The next day, media was removed using an 8-channel aspirator. 200 μL media/well are added back into the plate. The molecules are formulated to 1 mM and are dispensed using a Multidrop™ Pico 8 Digital Dispenser. After a 48-hour incubation with compounds, media was removed from plates, cells were washed with 1×PBS, and cells were lysed in 40 μL per well guanidinium thiocyanate buffer. RNA was isolated and purified in […] glass fiber column plates using chaotropic salts. Human mtHTT, wtHTT, and GAPDH mRNA were measured via RT-PCR using the ThermoFisher QuantStudio™ 7 Flex System in 384-well format. Results of HTT levels were normalized to GAPDH mRNA levels. Normalized HTT mRNA levels were expressed relative to vehicle-treated samples to assess fold change after molecule treatment.
(§3) Emin for each compound is the lowest % HTT concentration observed within a compound concentration of 0.5 nM to 1000 nM.

[2] = system: human HTT T allele (SNP rs362331C/T) mRNA in GM09197 fibroblasts; experiment: HTT mRNA, allele-specific RT-PCR in GM09197 fibroblasts, T allele; format: cell-based; settings: for IC50: Homo sapiens, Fibroblast, 48 hr, T allele HTT mRNA normalized to GAPDH, relative to vehicle; for Gm09197 Emin 48 hr T Allele (%): lowest % HTT observed at 0.5 nM to 1000 nM compound
Procedure: as §1, §2, §3

| SMILES | GM 09197 E min 48 Hr C Allele (%) [1] | IC50 [1] | IC50 [2] | Gm09197 Emin 48 hr T Allele (%) [2] |
| --- | --- | --- | --- | --- |
| CCS(=O)(=O)Nc1ccc(Oc2ccc(F)cc2F)c(-c2cn(C)c(=O)c3[nH]c(C(=O)Nc4ccc(OCCOCCOCCOCCOCCOCCOCCOCCOCCNC(=O)c5cc(NC(=O)c6nc(NC(=O)[C@H](N)CCNC(=O)c7cc(NC(=O)c8nc(NC(=O)CCNC(=O)c9cc(NC(=O)c%10nccn%10C)cn9C)cn8C)cn7C)cn6C)cn5C)cc4)cc23)c1 [Compound A-21] | A (A>90%) | > 1000 nM | > 1000 nM | A (A>90%) |
| CC(=O)Nc1c(F)cc(C(=O)NC2CCC(O)CC2)cc1O[C@@H](C)c1cccc(OCCOCCOCCOCCOCCOCCOCCOCCOCCOCCOCCOCCOCCOCCOCCOCCNC(=O)CCNC(=O)c2nc(NC(=O)c3cc(NC(=O)CCNC(=O)c4nc(NC(=O)CCCNC(=O)c5cc(NC(=O)c6nc(NC(=O)CCNC(=O)c7cc(NC(=O)c8nccn8C)cn7C)cn6C)cn5C)cn4C)cn3C)cn2C)c1 (stereo partly shown) [Compound A-31] | – | > 1000 nM | > 1000 nM | – |
| CC(=O)Nc1c(F)cc(C(=O)N[C@H]2CC[C@H](O)CC2)cc1O[C@@H](C)c1cccc(C(=O)NCCOCCOCCOCCOCCOCCOCCOCCOCCOCCOCCOCCOCCOCCOCCOCCNC(=O)CCNC(=O)c2nc(NC(=O)c3cc(NC(=O)CCNC(=O)c4nc(NC(=O)CCCNC(=O)c5cc(NC(=O)c6nc(NC(=O)CCNC(=O)c7cc(NC(=O)c8nccn8C)cn7C)cn6C)cn5C)cn4C)cn3C)cn2C)c1 [Compound A-32] | – | > 1000 nM | > 1000 nM | – |
| Cc1sc2c(c1C)C(c1ccc(Cl)cc1)=N[C@@H](CC(=O)Nc1ccc(OCCOCCOCCOCCOCCOCCOCCOCCOCCNC(=O)c3cc(NC(=O)c4nc(NC(=O)[C@H](N)CCNC(=O)c5cc(NC(=O)c6nc(NC(=O)CCNC(=O)c7cc(NC(=O)c8nccn8C)cn7C)cn6C)cn5C)cn4C)cn3C)cc1)c1nnc(C)n1-2 [Compound A-35] | A (A>90%) | > 1000 nM | > 1000 nM | – |
| CCS(=O)(=O)Nc1ccc(Oc2ccc(F)cc2F)c(-c2cn(C)c(=O)c3[nH]c(C(=O)Nc4ccc(OCCOCCOCCOCCOCCOCCOCCOCCOCCOCCOCCOCCOCCOCCOCCOCCNC(=O)c5cc(NC(=O)c6nc(NC(=O)[C@H](N)CCNC(=O)c7cc(NC(=O)c8nc(NC(=O)CCNC(=O)c9cc(NC(=O)c%10nccn%10C)cn9C)cn8C)cn7C)cn6C)cn5C)cc4)cc23)c1 [Compound A-36] | A (A>90%) | > 1000 nM | > 1000 nM | A (A>90%) |
| Cc1sc2c(c1C)C(c1ccc(Cl)cc1)=N[C@@H](CC(=O)Nc1ccc(OCCOCCOCCOCCOCCOCCOCCOCCOCCOCCOCCOCCOCCOCCOCCOCCNC(=O)c3cc(NC(=O)c4nc(NC(=O)c5cc(NC(=O)[C@@H](N)CCNC(=O)c6nc(NC(=O)CCNC(=O)c7cc(NC(=O)c8nccn8C)cn7C)cn6C)cn5C)cn4C)cn3C)cc1)c1nnc(C)n1-2 [Compound A-38] | A (A>90%) | > 1000 nM | > 1000 nM | A (A>90%) |
| CCS(=O)(=O)Nc1ccc(Oc2ccc(F)cc2F)c(-c2cn(C)c(=O)c3[nH]c(C(=O)Nc4ccc(OCCOCCOCCOCCOCCOCCOCCOCCOCCNC(=O)c5cc(NC(=O)c6nc(NC(=O)c7cc(NC(=O)[C@@H](N)CCNC(=O)c8nc(NC(=O)CCNC(=O)c9cc(NC(=O)c%10nccn%10C)cn9C)cn8C)cn7C)cn6C)cn5C)cc4)cc23)c1 [Compound A-39] | – | > 1000 nM | > 1000 nM | – |
| CCS(=O)(=O)Nc1ccc(Oc2ccc(F)cc2F)c(-c2cn(C)c(=O)c3[nH]c(C(=O)Nc4ccc(OCCOCCOCCOCCOCCOCCOCCOCCOCCOCCOCCOCCOCCOCCOCCOCCNC(=O)c5cc(NC(=O)c6nc(NC(=O)c7cc(NC(=O)[C@@H](N)CCNC(=O)c8nc(NC(=O)CCNC(=O)c9cc(NC(=O)c%10nccn%10C)cn9C)cn8C)cn7C)cn6C)cn5C)cc4)cc23)c1 [Compound A-40] | A (A>90%) | > 1000 nM | > 1000 nM | A (A>90%) |
| Cc1sc2c(c1C)C(c1ccc(Cl)cc1)=N[C@H](CC(=O)Nc1ccc(OCCOCCOCCOCCOCCOCCOCCOCCOCCOCCOCCOCCOCCOCCOCCOCCNC(=O)CCNC(=O)c3nc(NC(=O)c4cc(NC(=O)CCNC(=O)c5nc(NC(=O)CCCNC(=O)c6cc(NC(=O)c7nc(NC(=O)CCNC(=O)c8cc(NC(=O)c9nccn9C)cn8C)cn7C)cn6C)cn5C)cn4C)cn3C)cc1)c1nnc(C)n1-2 [Compound A-45] | C (C<80%) | > 1000 nM | > 1000 nM | C (C<80%) |
| Cn1cc(NC(=O)c2nc(NC(=O)CCNC(=O)c3cc(NC(=O)c4nccn4C)cn3C)cn2C)cc1C(=O)NCCCC(=O)Nc1cn(C)c(C(=O)NCCC(=O)Nc2cc(C(=O)Nc3cn(C)c(C(=O)NCCC(=O)NCCOCCOCCOCCOCCOCCOCCOCCOCCN4C[C@H](Nc5cnn(C)c(=O)c5Br)C[C@H](c5ccccc5)C4)n3)n(C)c2)n1 [Compound A-48] | A (A>90%) | > 1000 nM | > 1000 nM | A (A>90%) |
| Cn1cc(NC(=O)c2nc(NC(=O)CCNC(=O)c3cc(NC(=O)c4nccn4C)cn3C)cn2C)cc1C(=O)NCCCC(=O)Nc1cn(C)c(C(=O)NCCC(=O)Nc2cc(C(=O)Nc3cn(C)c(C(=O)NCCC(=O)NCCOCCOCCOCCOCCOCCOCCOCCOCCOCCOCCOCCOCCOCCOCCOCCN4C[C@H](Nc5cnn(C)c(=O)c5Br)C[C@H](c5ccccc5)C4)n3)n(C)c2)n1 [Compound A-49] | A (A>90%) | > 1000 nM | > 1000 nM | A (A>90%) |
| Cc1noc(C)c1-c1ccc2c(c1)nc(CCc1ccc(OCCOCCOCCOCCOCCOCCOCCOCCOCCNC(=O)CCNC(=O)c3nc(NC(=O)c4cc(NC(=O)CCNC(=O)c5nc(NC(=O)CCCNC(=O)c6cc(NC(=O)c7nc(NC(=O)CCNC(=O)c8cc(NC(=O)c9nccn9C)cn8C)cn7C)cn6C)cn5C)cn4C)cn3C)c(Cl)c1)n2C[C@H](C)N1CCOCC1 [Compound A-53] | A (A>90%) | > 1000 nM | > 1000 nM | – |
| Cc1noc(C)c1-c1ccc2c(c1)nc(CCc1ccc(OCCOCCOCCOCCOCCOCCOCCOCCOCCOCCOCCOCCOCCOCCOCCOCCNC(=O)CCNC(=O)c3nc(NC(=O)c4cc(NC(=O)CCNC(=O)c5nc(NC(=O)CCCNC(=O)c6cc(NC(=O)c7nc(NC(=O)CCNC(=O)c8cc(NC(=O)c9nccn9C)cn8C)cn7C)cn6C)cn5C)cn4C)cn3C)c(Cl)c1)n2C[C@H](C)N1CCOCC1 [Compound A-54] | – | > 1000 nM | > 1000 nM | – |
| CCNC(=O)c1cc2c(-c3cc(S(C)(=O)=O)ccc3Oc3ccc(OCCOCCOCCOCCOCCNC(=O)CCNC(=O)c4nc(NC(=O)c5cc(NC(=O)CCNC(=O)c6nc(NC(=O)CCCNC(=O)c7cc(NC(=O)c8nc(NC(=O)CCNC(=O)c9cc(NC(=O)c%10nccn%10C)cn9C)cn8C)cn7C)cn6C)cn5C)cn4C)cc3F)cn(C)c(=O)c2[nH]1 [Compound A-55] | A (A>90%) | > 1000 nM | > 1000 nM | A (A>90%) |
| CC(=O)N1c2ccc(-c3ccn(CCOCCOCCOCCOCCOCCOCCOCCOCCOCCOCCOCCOCCOCCOCCOCCNC(=O)CCNC(=O)c4nc(NC(=O)c5cc(NC(=O)CCNC(=O)c6nc(NC(=O)CCCNC(=O)c7cc(NC(=O)c8nc(NC(=O)CCNC(=O)c9cc(NC(=O)c%10nccn%10C)cn9C)cn8C)cn7C)cn6C)cn5C)cn4C)n3)cc2[C@H](Nc2ccc(C#N)cc2)C[C@@H]1C [Compound A-56] | C (C<80%) | > 1000 nM | 104 nM | C (C<80%) |
| CC(=O)N1c2ccc(-c3ccn(-c4ccc(OCCOCCOCCOCCOCCOCCOCCOCCOCCOCCOCCOCCOCCOCCOCCOCCNC(=O)CCNC(=O)c5nc(NC(=O)c6cc(NC(=O)CCNC(=O)c7nc(NC(=O)CCCNC(=O)c8cc(NC(=O)c9nc(NC(=O)CCNC(=O)c%10cc(NC(=O)c%11nccn%11C)cn%10C)cn9C)cn8C)cn7C)cn6C)cn5C)cc4)n3)cc2[C@H](Nc2ccc(C#N)cc2)C[C@@H]1C [Compound A-58] | – | > 1000 nM | > 1000 nM | – |
